{"source": "patent US5232937A", "about": "“Derivatives of N-phenylbenzamide with anti-ulcer and anti-allergy” (Rotta Research Laboratorium SpA., priority 1989, dated 1993)", "key": {"[1]": {"test_system": "passive cutaneous anaphylaxis reaction", "experiment": "Passive cutaneous anaphylaxis (PCA) in rats, modified Goose and Blair method", "format": "in vivo, rat", "description": "Male rats weighing approximately 400 g were treated with 10 mg/kg of grade V egg albumen dissolved in 1 ml of a physiological solution by I.M. and intraperitoneal (I.P.) routes. With one mg of Freund's complete adjuvent solution. 13 days after sensitisation, the animals were killed under […] anaesthesia, the blood was taken and the serum was kept at -70° C. after its titre of IgE specific to egg albumen had been assayed. On the basis of type, 2 intradermal injections (i.d.) of 0.1 ml of the antiserum, titrated and suitably diluted were given into the shaved backs of 200 g male rats at a time -24h.\nThe products under test were administered I.V. 20 minutes of the antigen. The animals were killed 30 minutes after the challenge, the skin of the back was turned inside out and the larger and smaller diameters of each blemish were measured. In practice the response of each animal was evaluated as the average of four diameters."}, "[2]": {"experiment": "Toxicity (LD50 IV in mice)", "details": "mouse, in vivo"}, "[3]": {"test_system": "gastric acid secretion induced by histamine", "experiment": "Anti-secretive activity, gastric acid secretion stimulated with histamine (Lai method, modified)", "format": "in vivo", "details": "Rattus norvegicus, iv, 1 h; I.V.; rats; histamine 2.3 mg/kg/h; read-out: ED50, antagonistic activity towards secretion induced by histamine", "description": "(§1) The anti-secretive activities were determined in rats with the use of male animals weighing approximately 200 g, anaesthetised with urethane. Gastric secretion was stimulated with pentagastrin, histamine or cabachol.\n(§2) After tracheotomy, cannulae were inserted in the aesophagus and the duodenum. These were perfused with a tepid solution (37° C.) which was passed through the stomach at a constant flow rate of 1 ml/minute by means of a peristaltic pump. After stabilisation for 20 minutes, the stimulant, dissolved in a physiological solution, was perfused for 120 minutes at the dose indicated in Table 1 in a volume of 0.95 ml/hour. After 60 minutes of perfusion (base stimulation) the product under test was administered intravenously (I.V.) in a bolus and the perfusion of the stimulant was continued for a further 60 minutes. The acid secretion was recorded continuously as a function of time.\n(§3) The activity of the product was evaluated as a percentage reduction in the acid secreted after the administration of the product against the base acidity measured in the first 60 minutes of collection which was in the presence of the stimulant alone."}, "ulcer caused by 25% NaCl": {"test_system": "ulcer caused by 25% NaCl", "experiment": "Cytoprotective activity, ulcer caused by 25% NaCl", "format": "in vivo", "details": "Rattus norvegicus, iv, 1 h; I.V.; rats; 15 minutes before NaCl; read-out: ED50, cytoprotective activity, ulcer caused by 25% NaCl", "description": "(§4) The drugs under test were administered intravenously 15 minutes before the irritant. […] It consists of the assignment of arbitrary points according to the number and gravity of the lesions in accordance with the following criterion:\n(§5) 1 if the length of the necrotic area is 2 mm\n(§6) 2 if the length of the necrotic area is between 2 and 4 mm\n(§7) 3 if the length of the necrotic area is 4 mm\n(§8) 5 if the length of the area is 4 mm with a perforated ulcer.\n(§9) A lesion index is then obtained by adding the number of lesions multiplied by their respective points."}, "[4]": {"test_system": "gastric acid secretion induced by carbachol", "experiment": "Anti-secretive activity, gastric acid secretion stimulated with carbachol (Lai method, modified)", "format": "in vivo", "details": "Rattus norvegicus, iv, 1 h; I.V.; rats; carbachol 30 mcg/kg/h; read-out: ED50, antagonistic activity towards secretion induced by carbachol", "description": "as §1, §2, §3"}, "[5]": {"test_system": "gastric acid secretion induced by pentagastrin", "experiment": "Anti-secretive activity, gastric acid secretion stimulated with pentagastrin (Lai method, modified)", "format": "in vivo", "details": "Rattus norvegicus, iv, 1 h; I.V.; rats; pentagastrin 30 mcg/kg/h; read-out: ED50, antagonistic activity towards secretion induced by pentagastrin", "description": "as §1, §2, §3"}, "ulcer caused by stress": {"test_system": "ulcer caused by stress", "experiment": "Cytoprotective activity, ulcer caused by stress (containment)", "format": "in vivo", "details": "Rattus norvegicus, im, 5 h; I.M.; rats; 15 minutes before the test; read-out: ED50, cytoprotective activity, ulcer caused by stress", "description": "as §5, §6, §7, §8, §9\nMale rats weighing approximately 150 g which had been starved for 24 hours were imprisoned in individual cylindrical cages and immersed up to the xiphoid process in cool water kept thermostatically at 19° C. The compounds were administrated intramuscularly (I.M.) 15 minutes before the start of the test.\n5 hours after the start of their containment, the animals were killed, their stomachs were removed and a quantitative evaluation was then carried out as described above."}, "ulcer caused by ethanol": {"test_system": "ulcer caused by ethanol", "experiment": "Cytoprotective activity, ulcer caused by ethanol", "format": "in vivo, rat", "details": "Rattus norvegicus, iv, 1 h; I.V.; rats; 15 minutes before ethanol; read-out: ED50, cytoprotective activity, ulcer caused by ethanol", "description": "as §4, §5, §6, §7, §8, §9"}}}
{"smiles": "N#Cc1ccc(C(=O)Nc2cc(C(=O)O)cc(C(=O)O)c2)cc1", "note": "[Compound 1, N-(3,5-dicarboxy)phenyl-4-cyanobenzamide]", "values": [{"measurement": "% inhibition of passive cutaneous anaphylaxis", "setting": "[1]; 50 mg/kg I.V.", "value": 20.0, "unit": "%"}, {"measurement": "% inhibition of passive cutaneous anaphylaxis", "setting": "[1]; 100 mg/kg I.V.", "value": 37.2, "unit": "%"}, {"measurement": "% inhibition of passive cutaneous anaphylaxis", "setting": "[1]; 150 mg/kg I.V.", "value": 58.2, "unit": "%"}, {"measurement": "ED50", "setting": "[1]; Rattus norvegicus, iv, 0.5 h, I.V., rats", "value": 128, "unit": "mg/kg"}, {"measurement": "LD50", "setting": "[2]; IV in mice", "value": 2400, "unit": "mg/kg"}, {"measurement": "selectivity ratio", "setting": "[2]; LD50 IV mice versus ED50 of pentagastrin, read-out: toxic dose relative to the antacid-secretion dose", "value": "~50"}, {"measurement": "ED50", "setting": "[3]", "value": 47, "unit": "mg/kg"}, {"measurement": "ED50", "setting": "ulcer caused by 25% NaCl", "value": 42, "unit": "mg/kg"}, {"measurement": "ED50", "setting": "[4]", "value": 33, "unit": "mg/kg"}, {"measurement": "ED50", "setting": "[5]", "value": 50, "unit": "mg/kg"}, {"measurement": "ED50", "setting": "ulcer caused by stress", "value": 135, "unit": "mg/kg"}, {"measurement": "ED50", "setting": "ulcer caused by ethanol", "value": 45, "unit": "mg/kg"}]}
{"smiles": "O=C(O)c1cc(NC(=O)c2ccc([N+](=O)[O-])cc2)cc(C(=O)O)c1", "note": "[Compound 2, N-(3,5-dicarboxy)phenyl-4-nitrobenzamide]", "values": [{"measurement": "ED50", "setting": "[3]", "value": 109, "unit": "mg/kg"}, {"measurement": "ED50", "setting": "[4]", "value": 68, "unit": "mg/kg"}, {"measurement": "ED50", "setting": "[5]", "value": 91, "unit": "mg/kg"}]}
{"smiles": "O=C(O)c1cc(NC(=O)c2ccc(Cl)cc2)cc(C(=O)O)c1", "note": "[Compound 3, N-(3,5-dicarboxy)phenyl-4-chlorobenzamide]", "values": [{"measurement": "ED50", "setting": "[3]", "value": 108, "unit": "mg/kg"}, {"measurement": "ED50", "setting": "[4]", "value": 104, "unit": "mg/kg"}, {"measurement": "ED50", "setting": "[5]", "value": 115, "unit": "mg/kg"}]}
{"smiles": "Cc1ccc(C(=O)Nc2cc(C(=O)O)cc(C(=O)O)c2)cc1", "note": "[Compound 4, N-(3,5-dicarboxy)phenyl-4-methylbenzamide]", "values": [{"measurement": "ED50", "setting": "[3]", "value": "> 250", "unit": "mg/kg"}, {"measurement": "ED50", "setting": "[4]", "value": 216, "unit": "mg/kg"}, {"measurement": "ED50", "setting": "[5]", "value": 189, "unit": "mg/kg"}]}
{"smiles": "COc1ccc(C(=O)Nc2cc(C(=O)O)cc(C(=O)O)c2)cc1", "note": "[Compound 5, N-(3,5-dicarboxy)phenyl-4-methoxybenzamide]", "values": [{"measurement": "ED50", "setting": "[3]", "value": 240, "unit": "mg/kg"}, {"measurement": "ED50", "setting": "[4]", "value": "> 250", "unit": "mg/kg"}, {"measurement": "ED50", "setting": "[5]", "value": 223, "unit": "mg/kg"}]}
{"smiles": "O=C(O)c1cc(NC(=O)c2ccc([N+](=O)[O-])c(O)c2)cc(C(=O)O)c1", "note": "[Compound 6, N-(3,5-dicarboxy)phenyl-3-hydroxy-4-nitrobenzamide]", "values": [{"measurement": "ED50", "setting": "[3]", "value": 205, "unit": "mg/kg"}, {"measurement": "ED50", "setting": "[4]", "value": 186, "unit": "mg/kg"}, {"measurement": "ED50", "setting": "[5]", "value": 210, "unit": "mg/kg"}]}
{"smiles": "O=C(O)c1cc(NC(=O)c2ccc(O)c(O)c2)cc(C(=O)O)c1", "note": "[Compound 7, N-(3,5-dicarboxy)phenyl-3,4-di-hydroxybenzamide]", "values": [{"measurement": "ED50", "setting": "[3]", "value": 102, "unit": "mg/kg"}, {"measurement": "ED50", "setting": "[4]", "value": 90, "unit": "mg/kg"}, {"measurement": "ED50", "setting": "[5]", "value": 97, "unit": "mg/kg"}]}
{"smiles": "COc1ccc(C(=O)Nc2cc(C(=O)O)cc(C(=O)O)c2)cc1OC", "note": "[Compound 8, N-(3,5-dicarboxy)phenyl-3,4-dimethoxybenzamide]", "values": [{"measurement": "ED50", "setting": "[3]", "value": 222, "unit": "mg/kg"}, {"measurement": "ED50", "setting": "[4]", "value": 188, "unit": "mg/kg"}, {"measurement": "ED50", "setting": "[5]", "value": 208, "unit": "mg/kg"}]}
